Experimental data reported in a compilation of properties of binary mixtures (doi:10.1515/zpch-2013-0494).

Assay: xn = mol fraction of the nth substance listed
Details: 101 kPa

CC(CC(C)(C)C)CP(=O)([O-])CC(C)CC(C)(C)C.CCCCCCCCCCCCCC[P+](CCCCCC)(CCCCCC)CCCCCC + CCCCCCCCCCCC
viscosity [mPa·s]
Details | x1 = 0.4684 | x1 = 0.6647 | x1 = 0.8071 | x1 = 1
298.15 K | – | 249 | 449 | 1000
303.15 K | 64.2 | 195 | 344 | –
308.15 K | – | 156 | 291 | –
313.15 K | 48 | 126 | 233 | 439
318.15 K | 40.9 | – | 180 | –
323.15 K | 35.2 | 85 | 144 | 264
328.15 K | 30.5 | 69.9 | 118 | –
333.15 K | 27.1 | 59.3 | 95.4 | 170
338.15 K | 24.2 | – | 81.1 | –
343.15 K | 21.2 | – | 65 | –
353.15 K | – | – | – | 78

CCCCCCCCCCCCCC[P+](CCCC)(CCCC)CCCC.CCCCCCCCCCCCc1ccccc1S(=O)(=O)[O-] + CCCCCCCCCCCC
viscosity [mPa·s]
Details | x1 = 0.354 | x1 = 0.4402 | x1 = 0.4844 | x1 = 0.6789 | x1 = 1
298.15 K | 312 | – | 594 | 2930 | –
303.15 K | 225 | – | 441 | 1580 | –
308.15 K | 167 | 239 | – | 1130 | –
313.15 K | – | – | – | 812 | 1480
318.15 K | 95 | 135 | 176 | – | –
323.15 K | 74.3 | 105 | 135 | 431 | 750
328.15 K | – | 81.7 | 101 | – | –
333.15 K | 47.7 | 65.7 | 81.6 | 228 | 409
338.15 K | – | 53.6 | – | 169 | –
343.15 K | 31.5 | 44.3 | 54.4 | – | 238
348.15 K | 26.5 | 36.8 | 43.3 | 108 | –
353.15 K | 22.6 | 31.1 | 37.1 | – | 148

CCCCCCCCCCCCCC[P+](CCCCCC)(CCCCCC)CCCCCC.N#C[N-]C#N + CCCCCCCCCCCC
viscosity [mPa·s]
Details | 298.15 K | 303.15 K | 308.15 K | 313.15 K | 318.15 K | 333.15 K | 338.15 K | 343.15 K | 348.15 K | 353.15 K
x1 = 0.5534 | 160 | 116 | – | 71.6 | 57.8 | 32.8 | 28 | – | 21.2 | 19
x1 = 0.736 | 238 | 181 | 141 | – | 89.1 | 49.3 | 41.4 | 35.5 | 30.3 | 26.1
x1 = 1 | 440 | – | – | 196 | – | 82 | – | 56 | – | –
